Experimental data: patent publication EP3623369A1, “NOVEL MORPHOLINYL AMINE COMPOUNDS FOR THE TREATMENT OF AUTOIMMUNE DISEASE” (F. Hoffmann-La Roche AG, priority 2018, dated 2020)

Target: T1, human TLR8 (Homo sapiens, UniProt Q9NR97)
T1 sequence (Q9NR97 27-1041): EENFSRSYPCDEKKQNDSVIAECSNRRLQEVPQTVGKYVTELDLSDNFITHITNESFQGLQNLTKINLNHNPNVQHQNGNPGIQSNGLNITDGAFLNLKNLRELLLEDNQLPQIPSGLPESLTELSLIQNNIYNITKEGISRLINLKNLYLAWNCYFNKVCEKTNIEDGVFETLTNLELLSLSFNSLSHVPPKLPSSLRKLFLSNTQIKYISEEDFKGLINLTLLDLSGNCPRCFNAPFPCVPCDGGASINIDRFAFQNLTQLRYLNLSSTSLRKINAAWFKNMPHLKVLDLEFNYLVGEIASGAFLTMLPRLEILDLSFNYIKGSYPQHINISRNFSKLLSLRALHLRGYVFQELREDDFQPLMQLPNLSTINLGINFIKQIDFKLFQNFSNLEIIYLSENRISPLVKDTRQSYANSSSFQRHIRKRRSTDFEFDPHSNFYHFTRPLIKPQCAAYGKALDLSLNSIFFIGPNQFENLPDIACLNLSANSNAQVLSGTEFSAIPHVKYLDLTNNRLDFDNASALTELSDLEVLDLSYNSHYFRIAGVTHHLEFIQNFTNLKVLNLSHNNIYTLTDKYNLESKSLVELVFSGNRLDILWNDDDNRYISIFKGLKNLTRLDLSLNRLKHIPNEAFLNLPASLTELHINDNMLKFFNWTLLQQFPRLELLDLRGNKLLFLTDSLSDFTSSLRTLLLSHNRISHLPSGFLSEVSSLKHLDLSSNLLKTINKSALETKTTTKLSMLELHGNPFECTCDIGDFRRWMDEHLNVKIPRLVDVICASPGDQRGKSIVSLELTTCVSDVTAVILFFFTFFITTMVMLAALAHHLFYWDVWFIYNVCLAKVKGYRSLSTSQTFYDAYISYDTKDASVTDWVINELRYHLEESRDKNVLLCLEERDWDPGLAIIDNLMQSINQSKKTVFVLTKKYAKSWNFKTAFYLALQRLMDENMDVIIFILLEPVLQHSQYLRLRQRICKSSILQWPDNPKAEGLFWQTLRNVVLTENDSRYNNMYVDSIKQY
Experiment: HEK293-Blue-hTLR-8 cells assay (SEAP reporter, R848 stimulation)
Type: cell-based
Conditions: HEK293-Blue-hTLR8 cells, R848, 20 hrs; 0.003 is the lowest tested concentration; read-out: HEK/hTLR8 IC50
Method: The following tests were carried out in order to determine the activity of the compounds of formula (I) or (Ia) in HEK293-Blue-hTLR-7/8/9 cells assay.
HEK293-Blue-hTLR-8 cells assay:
A stable HEK293-Blue-hTLR-8 cell line was purchased from InvivoGen (Cat.#: hkb-htlr8, San Diego, California, USA). These cells were originally designed for studying the stimulation of human TLR8 by monitoring the activation of NF-κB. A SEAP (secreted embryonic alkaline phosphatase) reporter gene was placed under the control of the IFN-β minimal promoter fused to five NF-κB and AP-1-binding sites. The SEAP was induced by activating NF-κB and AP-1 via stimulating HEK-Blue hTLR8 cells with TLR8 ligands. Therefore the reporter expression was declined by TLR8 antagonist under the stimulation of a ligand, such as R848, for incubation of 20 hrs. The cell culture supernatant SEAP reporter activity was determined using QUANTI-Blue™ kit (Cat.#: rep-qb1, Invivogen, San Diego, Ca, USA) at a wavelength of 640 nm, a detection medium that turns purple or blue in the presence of alkaline phosphatase.
HEK293-Blue-hTLR8 cells were incubated at a density of 250,000∼450,000 cells/mL in a volume of 170 µL in a 96-well plate in Dulbecco's Modified Eagle's medium (DMEM) containing 4.5 g/L glucose, 50 U/mL penicillin, […], […], 2 mM L-glutamine, 10% (v/v) heat-inactivated fetal bovine serum with addition of 20 µL test compound in a serial dilution in the presence of final DMSO at 1% and 10 µL of 60uM R848 in above DMEM, perform incubation under 37 °C in a CO2 incubator for 20 hrs. Then 20 µL of the supernatant from each well was incubated with 180 µL Quanti-blue substrate solution at 37°C for 2 hrs and the absorbance was read at 620∼655 nm using a spectrophotometer. The signalling pathway that TLR8 activation leads to downstream NF-κB activation has been widely accepted, and therefore similar reporter assay was modified for evaluating TLR8 antagonist.

Row | IC50 | Molecule
1 | 12 nM | C[C@@H]1CN(c2ccc3c(c2)CN(C[C@H]2CN(c4ccc(C#N)c5ncccc45)C[C@@H](C)O2)C3)C[C@@H](C)N1 (mixture of isomers) [Example 57, Trans-5-[(2R,6S)-2-methyl-6-[[5-[3,5-dimethylpiperazin-1-yl]isoindolin-2-yl]methyl]morpholin-4-yl]quinoline-8-carbonitrile]
2 | < 3 nM | C[C@@H]1CN(c2ccc(C#N)c3nccnc23)C[C@H](CN2Cc3ccc(N4CCNCC4)cc3C2)O1 [Example 12, 8-[(2R,6S)-2-methyl-6-[(5-piperazin-1-ylisoindolin-2-yl)methyl]morpholin-4-yl]quinoxaline-5-carbonitrile]
3 | < 3 nM | C[C@@H]1CN(c2ccc(C#N)c3nccnc23)C[C@H](CN2CCc3cc(N4CCNCC4)ccc3C2)O1 [Example 13, 8-[(2R,6S)-2-methyl-6-[(6-piperazin-1-yl-3,4-dihydro-1H-isoquinolin-2-yl)methyl]morpholin-4-yl]quinoxaline-5-carbonitrile]
4 | 29 nM | C[C@@H]1CN(c2ccc(C#N)n3ncc(F)c23)C[C@H](CN2CCc3cc(N4CCNCC4)ccc3C2)O1 [Example 14, 3-fluoro-4-[(2R,6S)-2-methyl-6-[(6-piperazin-1-yl-3,4-dihydro-1H-isoquinolin-2-yl)methyl]morpholin-4-yl]pyrazolo[1,5-a]pyridine-7-carbonitrile]
5 | 21 nM | C[C@@H]1CN(c2ccc(C#N)n3nccc23)C[C@H](CN2CCc3cc(N4CCN(C)CC4)ccc3C2)O1 [Example 15, 4-[(2R,6S)-2-methyl-6-[[6-(4-methylpiperazin-1-yl)-3,4-dihydro-1H-isoquinolin-2-yl]methyl]morpholin-4-yl]pyrazolo[1,5-a]pyridine-7-carbonitrile]

More lines, now with the values behind:

Row | Molecule | IC50
6 | 3-fluoro-4-[(2R,6S)-2-methyl-6-[(5-piperazin-1-ylisoindolin-2-yl)methyl]morpholin-4-yl]pyrazolo[1,5-a]pyridine-7-carbonitrile [Example 7] | 13 nM
7 | 5-[(2S,6R)-2-[[5-[3-(hydroxymethyl)piperazin-1-yl]isoindolin-2-yl]methyl]-6-methyl-morpholin-4-yl]quinoline-8-carbonitrile [Example 85] | 17 nM
8 | C[C@@H]1CN(c2ccc(C#N)c3ncccc23)C[C@H](CNCc2ccccc2)O1 [ER-886509, reference compound] | 139 nM
9 | C[C@@H]1CN(c2ccc(C#N)n3nccc23)C[C@H](CN2Cc3ccc(N4CCNCC4)cc3C2)O1 [Example 4, 4-[(2R,6S)-2-methyl-6-[(5-piperazin-1-ylisoindolin-2-yl)methyl]morpholin-4-yl]pyrazolo[1,5-a]pyridine-7-carbonitrile] | 57 nM
10 | C[C@@H]1CN(c2ccc(C#N)n3nccc23)C[C@H](CN2Cc3ccc(C4CCNCC4)cc3C2)O1 [Example 8, 4-[(2R,6S)-2-methyl-6-[[5-(4-piperidyl)isoindolin-2-yl]methyl]morpholin-4-yl]pyrazolo[1,5-a]pyridine-7-carbonitrile] | 79 nM
11 | C[C@@H]1CN(c2ccc(C#N)n3nccc23)C[C@H](CN2Cc3ccc(C4CCNC4)cc3C2)O1 (stereo partly drawn) [Example 9, 4-[(2R,6S)-2-methyl-6-[(5-pyrrolidin-3-ylisoindolin-2-yl)methyl]morpholin-4-yl]pyrazolo[1,5-a]pyridine-7-carbonitrile] | 90 nM
12 | C[C@@H]1CN(c2ccc(C#N)n3nccc23)C[C@H](CN2CCc3cc(N4CCNCC4)ccc3C2)O1 [Example 10, 4-[(2R,6S)-2-methyl-6-[(6-piperazin-1-yl-3,4-dihydro-1H-isoquinolin-2-yl)methyl]morpholin-4-yl]pyrazolo[1,5-a]pyridine-7-carbonitrile] | 52 nM
13 | C[C@@H]1CN(c2ccc(C#N)n3nccc23)C[C@H](CN2CCc3ccc(N4CCNCC4)cc3C2)O1 [Example 11, 4-[(2R,6S)-2-methyl-6-[(7-piperazin-1-yl-3,4-dihydro-1H-isoquinolin-2-yl)methyl]morpholin-4-yl]pyrazolo[1,5-a]pyridine-7-carbonitrile] | 229 nM
